# Legend:
# TP Receptor = TP Receptor Platelet Aggregation - Rabbit (U-46619-induced, platelet rich plasma); format: cell-based, New Zealand Rabbit; details: at 0.1 mM; 1.5 μM U-46619
# Procedure: Using these experimental conditions New Zealand Rabbit (2.75±0.25 kg) platelet rich plasma, Vehicle: 0.3% DMSO, Assay: Inhibition of 1.5 μM U-46619-induced platelet aggregation, Incubation Time, Temp: 5 min at 37° C., Incubation Buffer: Trisodium Citrate (0.13 M)-treated platelet rich plasma, Bath Volume: 0.5 mL, Time of Assessment: 5 min, Quantification Method: Optical Density Change. the assay performed according to Patscheke, H., and Stregmeier, K. (1984) Investigations on a selective non-prostanoic thromboxane antagonist, BM13,177, in human platelets. Thrombosis Research 33:277-288
# The data were transformed to semi-log and then analysed using non-linear regression to a four-parameter dose-response curve Y=Bottom+(Top−Bottom)/(1+10^((Log EC50−X)*HillSlope)) using the log(agonist) vs. response—Variable slope function of GraphPad Prism software (http://graphpad.com/help/prism5/prism5help.html?usingnonlinear_regression_step_by_s.ht m).
# [1] = biological target: T1, Human Recombinant (E. coli) PPARgamma (Homo sapiens, UniProt P37231); assay: PPAR gamma binding assay ([3H]-rosiglitazone)
# T1 construct: host or cells: E. coli
# T1 sequence (P37231 1-505): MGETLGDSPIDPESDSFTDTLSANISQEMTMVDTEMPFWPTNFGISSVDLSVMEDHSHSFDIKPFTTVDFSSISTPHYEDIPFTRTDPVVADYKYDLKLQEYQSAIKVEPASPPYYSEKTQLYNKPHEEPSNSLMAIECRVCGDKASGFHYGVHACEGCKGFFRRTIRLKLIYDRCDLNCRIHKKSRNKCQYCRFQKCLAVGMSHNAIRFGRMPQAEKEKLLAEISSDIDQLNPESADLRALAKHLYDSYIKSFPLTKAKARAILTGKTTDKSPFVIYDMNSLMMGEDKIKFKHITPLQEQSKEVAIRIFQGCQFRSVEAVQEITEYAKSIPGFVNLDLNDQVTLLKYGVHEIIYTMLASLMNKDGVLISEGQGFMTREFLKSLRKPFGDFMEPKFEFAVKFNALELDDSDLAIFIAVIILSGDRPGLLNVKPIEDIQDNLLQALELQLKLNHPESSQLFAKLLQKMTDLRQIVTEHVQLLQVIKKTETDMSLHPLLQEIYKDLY
# Procedure: Human Recombinant (E. coli) PPARgamma) (h) Binding Assay:
# The results are expressed as a percent of control specific binding ((measured specific binding/control specific binding)×100) obtained in the presence of the test compounds. The IC50 values (concentration causing a half-maximal inhibition of control specific binding) and Hill coefficients (nil) were determined by non-linear regression analysis of the competition curves generated with mean replicate values using Hill equation curve fitting (Y=D+[(A−D)/(1+(C/C50)nH)], where Y=specific binding, D=minimum specific binding, A=maximum specific binding, C=compound concentration, C50=IC50, and nH=slope factor). This analysis is performed using a software developed at Cerep (Hill software) and validated by comparison with data generated by the commercial software SigmaPlot® 4.0 for Windows® (© 1997 by SPSS Inc.). The inhibition constants (Ki) are calculated using the Cheng Prusoff equation (Ki=IC50/(1+(L/KD)), where L=concentration of radioligand in the assay, and KD=affinity of the radioligand for the receptor).
SMILES,Platelet aggregation Rabbit Inhibition (%) (TP Receptor),conversion of the prodrug to the corresponding acid [1],"binding to PPARgamma ([1]; [3H]-rosiglitazone 10 nM, 120 min at 4° C., compared with the acid of Example 1)"
COc1ccc(C(=O)NCc2cccnc2)cc1C(=O)NCc1cccnc1 [Picotamide],21,–,–
COC(=O)CC/C=C\C[C@@H]1COC(c2ccccc2Cl)O[C@@H]1c1ccccc1O (stereo partly drawn) [Prodrug 2],–,the prodrug is converted to the corresponding acid,binds to PPARgamma at least as well as the corresponding acid
